Laboratory results taken from PubChem BioAssay (NCI).
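Assay format: 96-well plates, 48-hour exposure. The concentration for 50% growth inhibition is given as GI50. TGI: concentration producing complete growth inhibition.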

Key:
Assay in all cases: NCI anticancer screen, dose series, 48 h
NCI/ADR-RES ovarian = test system: NCI/ADR-RES ovarian
SK-MEL-5 melanoma = test system: SK-MEL-5 melanoma
U251 CNS = test system: U251 CNS
MCF7 breast = test system: MCF7 breast
CCRF-CEM leukemia = test system: CCRF-CEM leukemia
HCC-2998 colon = test system: HCC-2998 colon
DU-145 prostate = test system: DU-145 prostate
A498 renal = test system: A498 renal
SF-268 CNS = test system: SF-268 CNS
SNB-75 CNS = test system: SNB-75 CNS

Row | Compound | GI50 (NCI/ADR-RES ovarian) | TGI (NCI/ADR-RES ovarian) | GI50 (SK-MEL-5 melanoma) | TGI (SK-MEL-5 melanoma) | GI50 (U251 CNS) | TGI (U251 CNS) | GI50 (MCF7 breast) | TGI (MCF7 breast) | GI50 (CCRF-CEM leukemia) | TGI (CCRF-CEM leukemia) | GI50 (HCC-2998 colon) | TGI (HCC-2998 colon) | GI50 (DU-145 prostate) | TGI (DU-145 prostate) | GI50 (A498 renal) | TGI (A498 renal) | GI50 (SF-268 CNS) | TGI (SF-268 CNS) | GI50 (SNB-75 CNS) | TGI (SNB-75 CNS)
1 | CC/C=C\C[C@H]1CC=C2C(=O)C=C[C@@H]2CC=CCCCC(=O)O[C@@H](CCCCC)CC=C2C(=O)C=C[C@@H]2CC=CCCCC(=O)O[C@@H](CCCCC)CC=C2C(=O)C=C[C@@H]2CC=CCCCC(=O)O[C@@H](CCCCC)CC=C2C(=O)C=C[C@@H]2CC=CCCCC(=O)O1 | > 7.9 µM | > 7.9 µM | 1.85 µM | 4.5 µM | 1.45 µM | 3.13 µM | 1.46 µM | > 7.9 µM | 1.65 µM | > 7.9 µM | 1.86 µM | 4.07 µM | 2.68 µM | > 7.9 µM | 2.25 µM | > 7.9 µM | 2.62 µM | > 7.9 µM | 3.8 µM | > 7.9 µM
2 | CCN1C(=O)/C(=C/c2c(Cl)[nH]c3cc(C)c(OC)cc23)c2ccccc21 | 4.65 µM | 65 µM | 2.99 µM | 8.19 µM | 4.53 µM | 20.2 µM | 0.409 µM | > 100 µM | 1.76 µM | 5.22 µM | 2.4 µM | 7.15 µM | 3.29 µM | > 100 µM | 5.95 µM | 33 µM | 6.18 µM | > 100 µM | 13.8 µM | > 100 µM
3 | CN(c1ccc(NC(=O)Nc2c(Cl)cccc2Cl)cc1)c1ccnc(Nc2cccc(CS(C)(=O)=O)c2)n1 | 5.49 µM | > 25 µM | 2.79 µM | 7.09 µM | 2.62 µM | 9.61 µM | 2.82 µM | > 14.3 µM | 0.109 µM | > 25 µM | 4.78 µM | 16.8 µM | 3.07 µM | 6.72 µM | 4.4 µM | > 20.3 µM | 2.19 µM | 10.7 µM | 1.69 µM | 7 µM
4 | CCN1C(=O)c2ccc3c4c(ccc(c24)C1=O)C(=O)N(CCCNCc1ccccc1OC)C3=O | 1.04 µM | 5.96 µM | 0.164 µM | 0.319 µM | 1.25 µM | 3.32 µM | 0.205 µM | 0.584 µM | 0.793 µM | 9.41 µM | 0.632 µM | 1.89 µM | 1.22 µM | 2.5 µM | 0.383 µM | 1.99 µM | 1.15 µM | 5.75 µM | 1.57 µM | 3.01 µM
